Values joined by “and” are separate entries in the source; they are usually repeats but may differ in a detail not shown here. Equal values may be shown once. Where a name gives a salt, the structure may show the parent alone. Read-outs that look alike come from different tables or passages of the source.
Tests used:
HIV-1 (strain LAV-1) = test: Inhibition of HIV replication in PBM cells (supernatant RT activity); assay type: cell-based
[1] = system: herpes simplex virus type 1; test: Plaque assay in Vero cells, HSV type 1; assay type: cell-based, HSV-1
Description: (§1) Methodology for Testing Antiviral Drugs for Inhibition of Replication of HSV-1 and HSV-2
(§2) Compounds are tested for inhibition of herpes simplex virus type 1 and herpes simplex virus type 2 using the method of Schinazi, et al., Antimicrobial Agents and Chemotherapy 22, 499-507 (1982). This is a plaque assay using Vero cells (African green monkey cells) infected with HSV.

[2] = system: herpes simplex virus type 2; test: Plaque assay in Vero cells, HSV type 2; assay type: cell-based, HSV-2
Description: as §1, §2

[3] = target: HIV-1 reverse transcriptase (Human immunodeficiency virus type 1 group M subtype B, UniProt P04585); test: Inhibition of purified HIV-1 reverse transcriptase (cell free); assay type: biochemical
Description: Methodology for Testing Antiviral Drugs for Inhibition of HIV-1 Reverse Transcriptase
Cells and viruses are cultured as described above. […] 12,431-439 (1973). Cocktail, template, compound to be tested and reverse transcriptase are mixed together on ice, then incubated for one hour at 37° C.. The DNA synthesized is acid precipitated and the radioactivity measured, as described by Eriksson, B., et al., Antimicrobial Agents and Chemotherapy 31, 600-604 ([…]).

[4] = system: reverse transcriptase of avian myeloblastosis virus; conditions: 10^-4 M; cited from earlier work
[5] = system: reverse transcriptase of Rauscher murine leukemia virus; conditions: cited from earlier work
influenza A = conditions: upon exposure to light; concentrations as low as; cited from earlier work
herpes simplex viruses = conditions: upon exposure to light; concentrations as low as; cited from earlier work
[6] = human PBM cells, RT activity in supernatant five days after infection, read-out: EC50, inhibition of HIV replication in PBM cells
[7] = Human alphaherpesvirus 1, Light, Vero cells plaque assay, read-out: EC50 HSV type 1 Light
[8] = Human alphaherpesvirus 2, Dark, Vero cells plaque assay, read-out: EC50 HSV type 2 Dark
[9] = Human alphaherpesvirus 2, Light, Vero cells plaque assay, read-out: EC50 HSV type 2 Light
[10] = read-out: EC50, inhibition of HIV reverse transcriptase, purified enzyme, one hour at 37° C.
[11] = Human immunodeficiency virus 1, PBMC, 120 h, human PBM cells, RT activity in supernatant five days after infection, read-out: EC50, inhibition of HIV replication in PBM cells
[12] = purified enzyme, one hour at 37° C., read-out: EC50, inhibition of HIV reverse transcriptase
[13] = Human alphaherpesvirus 1, Dark, Vero cells plaque assay, read-out: EC50 HSV type 1 Dark
[14] = Human immunodeficiency virus 1, PBMC, 120 h, read-out: EC50, inhibition of HIV replication in PBM cells, human PBM cells, RT activity in supernatant five days after infection

Molecule: Copper-4,4',4'',4'''-tetra-aza-29H, 31H-phthalocyanine [CuPHTHN4]
- EC50 (HIV-1 (strain LAV-1); [6]): 100 µM

Molecule: C=CC1=C(C)c2cc3[nH]c(cc4nc(cc5[nH]c(cc1n2)c(C)c5CCC(=O)O)C(CCC(=O)O)=C4C)c(C)c3C=C [PPIX, Protoporphyrin, disodium salt]
- EC50 [1, 7]: < 0.01 µM
- EC50 [2, 8]: 10 µM
- EC50 [2, 9]: 0.05 µM
- EC50 [3]: > 100 µM

Molecule: Copper phthalocyanine tetrasulfonic acid tetra-sodium salt [CuPHTHS4]
- EC50 (HIV-1 (strain LAV-1); [6]): 22.4 µM

Molecule: [Co+2].c1ccc2c(c1)-c1nc-2nc2[n-]c(nc3nc(nc4[n-]c(n1)c1ccccc41)-c1ccccc1-3)c1ccccc21 [CoPHTH, Cobalt phthalocyanine]
- EC50 (HIV-1 (strain LAV-1); [6]): 100 µM

Molecule: Nickel phthalocyanine tetrasulfonic acid [NiPHTHS4]
- EC50 (HIV-1 (strain LAV-1); [6]): 1.06 µM

Molecule: Copper phthalocyanine 3,4'4'',4'''-tetrasulfonic acid [(CuPHTHS4)(3,4,4,4)]
- EC50 (HIV-1 (strain LAV-1); [6]): ≤ 1 µM

Molecule: C[n+]1ccc(-c2c3nc(c(-c4ccccc4)c4ccc([nH]4)c(-c4ccccc4)c4nc(c(-c5cc[n+](C)cc5)c5ccc2[nH]5)C=C4)C=C3)cc1 [CP-4, 5,10-Diphenyl-15,20-di(N-methyl-4-pyridyl)-porphyrin Cl-]
- Difference in inhibition of HIV, dark versus light (HIV-1 (strain LAV-1)): No significant differences in activity
- EC50 (HIV-1 (strain LAV-1); Human immunodeficiency virus 1, PBMC, 120 h, read-out: EC50, inhibition of HIV replication in PBM cells): 0.38 µM
- EC50 (HIV-1 (strain LAV-1); Human immunodeficiency virus 1, PBMC, read-out: EC50, inhibition of HIV replication in PBM cells): 0.43 µM
- EC50 [3]: 26.9 µM

Molecule: Fe(III)-mu-oxo-dimer of tetraphenyl-porphyrin [μ-oxo-TPP]
- EC50 (HIV-1 (strain LAV-1); [6]): > 100 µM

Molecule: C[n+]1ccc(-c2c3nc(c(-c4ccccc4)c4ccc([nH]4)c(-c4cc[n+](C)cc4)c4nc(c(-c5ccccc5)c5ccc2[nH]5)C=C4)C=C3)cc1 [TP-3, 5,15-Diphenyl-10,20-di(N-methyl-4-pyridyl)-porphyrin Cl-]
- EC50 [3, 10]: 7.3 µM

Molecule: Clc1ccc(-c2c3nc(c(-c4ccc(Cl)cc4)c4ccc([nH]4)c(-c4ccc(Cl)cc4)c4nc(c(-c5ccc(Cl)cc5)c5ccc2[nH]5)C=C4)C=C3)cc1 [TPP(4-Cl)4, Tetra-(4-chlorophenyl)-porphyrin]
- EC50 (HIV-1 (strain LAV-1); [11]): ~100 µM

Molecule: Hemin, bovine, (chloro protoporphyrin IX Fe(III)) [FePPIXCl]
- EC50 (HIV-1 (strain LAV-1); [6]): 49.3 µM
- Inhibition of reverse transcriptase activity (in words) [4]: not
- Concentration inhibiting reverse transcriptase activity [5]: 10^-4 M
- EC50 [3, 12]: 20.5 µM

Molecule: [Cu+2].c1ccc2c(c1)-c1nc-2nc2[n-]c(nc3nc(nc4[n-]c(n1)c1ccccc41)-c1ccccc1-3)c1ccccc21 [CuPHTH, Copper phthalocyanine]
- EC50 (HIV-1 (strain LAV-1); [6]): 46.9 µM

Molecule: C[n+]1cccc(-c2c3nc(c(-c4ccccc4)c4ccc([nH]4)c(-c4ccccc4)c4nc(c(-c5ccc[n+](C)c5)c5ccc2[nH]5)C=C4)C=C3)c1 [CP-3, 5,10-Diphenyl-15,20-di(N-methyl-3-pyridyl)-porphyrin Cl-]
- EC50 (HIV-1 (strain LAV-1); [11]): 2.28 µM
- EC50 [3]: 41.6 µM

Molecule: Cc1cccc(-c2c3nc(c(-c4cccc(C)c4)c4ccc([nH]4)c(-c4cccc(C)c4)c4nc(c(-c5cccc(C)c5)c5ccc2[nH]5)C=C4)C=C3)c1 [TPP(3-Me)4, Tetra-(3-methylphenyl)-porphyrin]
- EC50 [1, 13]: > 10 µM
- EC50 [1, 7]: > 10 µM
- EC50 [2, 9]: > 10 µM

Molecule: [Cl][Fe]1[n]2c3ccc2C(c2ccccc2)=C2C=CC(=N2)C(c2ccccc2)=c2ccc([n]21)=C(c1ccccc1)C1=NC(=C3c2ccccc2)C=C1 [FeTPPCl, Fe(III)-tetraphenylporphyrin chloride]
- EC50 (HIV-1 (strain LAV-1); [6]): ~100 µM

Molecule: C[n+]1cccc(-c2c3nc(c(-c4ccccc4)c4ccc([nH]4)c(-c4ccc[n+](C)c4)c4nc(c(-c5ccccc5)c5ccc2[nH]5)C=C4)C=C3)c1 [TP-4, 5,15-Diphenyl-10,20-di(N-methyl-3-pyridyl)-porphyrin Cl-]
- EC50 (HIV-1 (strain LAV-1); [11]): < 1 µM
- EC50 (HIV-1 (strain LAV-1); [6]): 0.76 µM
- EC50 [3, 10]: 6.9 µM

Molecule: Cl[Si]1(Cl)n2c3c4ccccc4c2N=C2N=C(N=c4c5ccccc5c(n41)=NC1=NC(=N3)c3ccccc31)c1ccccc12 [SiPHTHCl2, Silicon phthalocyanine dichloride]
- EC50 (HIV-1 (strain LAV-1); [14]): ≤ 1 µM

Molecule: Reactive Blue 15
- EC50 (HIV-1 (strain LAV-1); [6]): ≤ 1 µM

Molecule: C[n+]1ccc(-c2c3nc(c(-c4ccccc4)c4ccc([nH]4)c(-c4ccccc4)c4nc(c(-c5cc[n+](C)cc5)c5ccc2[nH]5)C=C4)C=C3)cc1.[Ni+2] [Ni-CP4, Ni(II)-5,10-diphenyl-15,20-di(N-methyl-4-pyridyl)-porphyrin]
- EC50 (HIV-1 (strain LAV-1); [6]): 3.44 µM and 6.54 µM
- EC50 [3, 12]: 24.8 µM

Molecule: C[n+]1ccc(-c2c3nc(c(-c4cc[n+](C)cc4)c4ccc([nH]4)c(-c4cc[n+](C)cc4)c4nc(c(-c5cc[n+](C)cc5)c5ccc2[nH]5)C=C4)C=C3)cc1 [TMPyP, Tetra-(N-methyl-4-pyridyl)-porphyrin tosylate salt]
- EC50 ([1]; Human alphaherpesvirus 1, Vero, read-out: EC50 HSV type 1 Dark): 0.04 µM
- EC50 ([1]; Human alphaherpesvirus 1, Vero, read-out: EC50 HSV type 1 Light): 0.03 µM
- EC50 ([2]; Human alphaherpesvirus 2, Vero, read-out: EC50 HSV type 2 Dark): > 10 µM
- EC50 ([2]; Human alphaherpesvirus 2, Vero, read-out: EC50 HSV type 2 Light): > 1 µM

Molecule: Cc1ccc(-c2c3nc(c(-c4ccc(C)cc4)c4ccc([nH]4)c(-c4ccc(C)cc4)c4nc(c(-c5ccc(C)cc5)c5ccc2[nH]5)C=C4)C=C3)cc1 [TPP(4-Me)4, Tetra-(4-methylphenyl)-porphyrin]
- EC50 [1, 13]: > 10 µM
- EC50 [1, 7]: 1 µM
- EC50 [2, 8]: 3.95 µM
- EC50 [2, 9]: > 10 µM
- EC50 [3]: > 100 µM

Molecule: Fe(III)-tetra-(4-methylphenyl)-porphyrin chloride [(FeTPP)(4-Cl)4]
- EC50 (HIV-1 (strain LAV-1); [6]): > 100 µM

Molecule: CC1=C(CCC(=O)O)c2cc3[nH]c(cc4nc(cc5[nH]c(cc1n2)c(C)c5C(C)O)C(C)=C4C(C)O)c(C)c3CCC(=O)O (stereo not drawn) [hematoporphyrin]
- Concentration inhibiting in vitro replication of influenza A (influenza A): 0.5 µg/mL
- Concentration inhibiting in vitro replication of herpes simplex viruses (herpes simplex viruses): 0.5 µg/mL

Molecule: O=C(O)c1ccc(-c2c3nc(c(-c4ccc(C(=O)O)cc4)c4ccc([nH]4)c(-c4ccc(C(=O)O)cc4)c4nc(c(-c5ccc(C(=O)O)cc5)c5ccc2[nH]5)C=C4)C=C3)cc1 [TPP(4-CO2 H)4, Tetra-(4-carboxyphenyl)-porphyrin]
- EC50 [1, 13]: 2.5 µM
- EC50 [1, 7]: 10 µM
- EC50 [2, 8]: > 10 µM
- EC50 [2, 9]: > 10 µM
- EC50 [3]: 1.1 µM

Molecule: C1=Cc2nc1c(-c1ccccc1)c1ccc([nH]1)c(-c1ccccc1)c1nc(c(-c3ccccc3)c3ccc([nH]3)c2-c2ccccc2)C=C1 [TPP, Meso-tetraphenylporphine]
- EC50 (HIV-1 (strain LAV-1); [14]): 13.7 µM
- EC50 (HIV-1 (strain LAV-1); read-out: EC50, inhibition of HIV replication in PBM cells, human PBM cells, RT activity in supernatant five days after infection): > 10 µM
- EC50 [1, 13]: > 10 µM
- EC50 [1, 7]: 10 µM
- EC50 [2, 8]: > 10 µM
- EC50 [2, 9]: > 10 µM
- EC50 [3]: > 100 µM

Molecule: C[n+]1ccc(-c2c3nc(c(-c4cc[n+](C)cc4)c4ccc([nH]4)c(-c4cc[n+](C)cc4)c4nc(c(-c5cc[n+](C)cc5)c5ccc2[nH]5)C=C4)C=C3)cc1.Cl.[Fe+3] [FeTMPyP, Fe(III)-tetra-(N-methyl-4-pyridyl)-porphyrin chloride]
- EC50 (HIV-1 (strain LAV-1); [6]): 78.1 µM

Molecule: Oc1ccc(-c2c3nc(c(-c4ccc(O)cc4)c4ccc([nH]4)c(-c4ccc(O)cc4)c4nc(c(-c5ccc(O)cc5)c5ccc2[nH]5)C=C4)C=C3)cc1 [TPP(4-OH)4, Tetra-(4-hydroxyphenyl)-porphyrin]
- EC50 (HIV-1 (strain LAV-1); [11]): 0.6 µM
- EC50 (HIV-1 (strain LAV-1); [6]): 0.7 µM
- EC50 [1, 13]: > 10 µM
- EC50 [1, 7]: > 10 µM
- EC50 [2, 8]: > 10 µM
- EC50 [2, 9]: > 10 µM

Molecule: C=CC1=C(C)c2cc3[nH]c(cc4nc(cc5[nH]c(cc1n2)c(C)c5C=C)C(C)=C4CCC(=O)OC)c(CCC(=O)OC)c3C [PPIXDME, Protoporphyrin IX dimethyl ester]
- EC50 [1, 13]: > 10 µM
- EC50 [1, 7]: 10 µM
- EC50 [2, 8]: > 10 µM
- EC50 [2, 9]: > 10 µM
- EC50 [3]: > 100 µM

Molecule: C[n+]1ccc(-c2c3nc(c(-c4cc[n+](C)cc4)c4ccc([nH]4)c(-c4ccccc4)c4nc(c(-c5ccccc5)c5ccc2[nH]5)C=C4)C=C3)cc1.[Cu+2] [Cu-CP4, Cu(II)-5,10-diphenyl-15,20-di(N-methyl-4-pyridyl)-porphyrin]
- EC50 (HIV-1 (strain LAV-1); [6]): 4.76 µM and 5.78 µM
- EC50 [3, 12]: 57.4 µM
